Literature values, collected in patent US11559045B2, “Synergistic mixture for inducing hygienic behavior in honey bees, and related compositions and methods” (University of North Carolina at Greensboro, priority 2019, dated 2023).

Test system: honey bees
Details: previously shown (US 2018/0177160; Nazzi et al. 2004)

| SMILES | induction of hygienic behavior in honey bees |
| --- | --- |
| CCCCCCCCC/C=C\CCCCCCCCCCCCCCCCCCCCCC [Compound (I), (Z)-10-tritriacontene] | induce hygienic behavior |
| CCCCC/C=C\CCCCCCCC [Compound (IV), (Z)-6-pentadecene] | induce hygienic behavior |
